In the data set the test system is HT29. Conditions: 72 h, relative to DMSO; 10 µM. In short, it runs like this: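 Cells were exposed to drug for 72 h, then to WST-1 for 2 h at 37 °C, and absorbance was read at 450 nm as viability against DMSO treatment. In the screen, each compound was applied at 10 µM.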

Structures are written as SMILES. Structures can show the parent of a compound that is named as a salt.

`C[C@]12CC[C@H](O)CC1=CC[C@@H]1[C@@H]2CC[C@]2(C)C(n3cnc4ccccc43)=CC[C@@H]12` [Galeterone]: the “Relative cell viability (%)” value worked out at 25.73%.

Regarding `Nc1nc(O)c2ncn(COC(CO)CO)c2n1` [Ganciclovir], the “Relative cell viability (%)” value is given as 103.4%.

As for `COc1c(N2CCNC(C)C2)c(F)cc2c(=O)c(C(=O)O)cn(C3CC3)c12` (stereo not drawn) [Gatifloxacin], the “Relative cell viability (%)” value was determined as 96.11%.

`O=c1c(-c2ccc(O)cc2)coc2cc(O)cc(O)c12` [Genistein]: the “Relative cell viability (%)” value came out at 102.3%.

For the molecule `C#C[C@]1(O)C=C[C@H]2[C@@H]3CCC4=CC(=O)CC[C@@H]4[C@H]3CC[C@@]21CC` [Gestodene], the “Relative cell viability (%)” value worked out at 69.63%.

With `Oc1cc(O)c(Cl)cn1` [Gimeracil], the “Relative cell viability (%)” value was determined as 117.6%.

With `CCC1=C(C)CN(C(=O)NCCc2ccc(S(=O)(=O)NC(=O)N[C@H]3CC[C@H](C)CC3)cc2)C1=O` [Glimepiride], the “Relative cell viability (%)” value is listed as 64.95%.

Consider `COc1ccccc1OCC(O)CO` (stereo not drawn) [Guaifenesin], for which the “Relative cell viability (%)” value was 74.15%.

For `N=C(N)NC(=O)Cc1c(Cl)cccc1Cl` [Guanfacine Hydrochloride], the “Relative cell viability (%)” value stood at 129.1%.

As for `O=C(CCCN1CCC(O)(c2ccc(Cl)cc2)CC1)c1ccc(F)cc1` [Haloperidol], the “Relative cell viability (%)” value stood at 29.34%.

As for `NC(=O)NO` [Hydroxyurea], the “Relative cell viability (%)” value came to 70.34%.

Consider `C[C@H](Nc1ncnc2[nH]cnc12)c1cc2cccc(Cl)c2c(=O)n1-c1ccccc1` [IPI-145 (INK1197)], for which the “Relative cell viability (%)” value was 79.06%.

As for `C=CC(=O)N1CCC[C@@H](n2nc(-c3ccc(Oc4ccccc4)cc3)c3c(N)ncnc32)C1` [Ibrutinib (PCI-32765)], the “Relative cell viability (%)” value is reported as 53.4%.

On to `CCCCCCCN(CC)CCCC(O)c1ccc(NS(C)(=O)=O)cc1` (stereo not drawn) [Ibutilide Fumarate], for which the “Relative cell viability (%)” value is 112%.

On to `COc1cc(C(=O)O)ccc1NC(=O)[C@@H]1N[C@@H](CC(C)(C)C)[C@](C#N)(c2ccc(Cl)cc2F)[C@H]1c1cccc(Cl)c1F` [Idasanutlin (RG-7388)], for which the “Relative cell viability (%)” value worked out at 98.29%.

Take `COC1=C(OC)C(=O)C(CCCCCCCCCCO)=C(C)C1=O` [Idebenone]: the “Relative cell viability (%)” value was 41.75%.

`O=c1[nH]c(=O)n([C@H]2C[C@H](O)[C@@H](CO)O2)cc1I` [Idoxuridine]: the “Relative cell viability (%)” value was determined as 86.86%.

Take `O=P1(NCCCl)OCCCN1CCCl` (stereo not drawn) [Ifosfamide]: the “Relative cell viability (%)” value is reported as 92.99%.

For the molecule `CNC(=O)[C@H](Cc1c[nH]c2ccccc12)NC(=O)[C@@H](CC(=O)NO)CC(C)C` [Ilomastat (GM6001, Galardin)], the “Relative cell viability (%)” value turned out to be 95.73%.

`CCOC(=O)[C@H](CCc1ccccc1)N[C@@H](C)C(=O)N1C(=O)N(C)C[C@H]1C(=O)O` [Imidapril HCl]: the “Relative cell viability (%)” value was 128.5%.

In the case of `CC1Cc2ccccc2N1NC(=O)c1ccc(Cl)c(S(N)(=O)=O)c1` (stereo not drawn) [Indapamide], the “Relative cell viability (%)” value was 71.61%.

As for `CCc1c2c(nc3ccc(OC(=O)N4CCC(N5CCCCC5)CC4)cc13)-c1cc3c(c(=O)n1C2)COC(=O)[C@]3(O)CC` [Irinotecan HCl Trihydrate], the “Relative cell viability (%)” value came out at 113.8%.

For `Nc1nc(N)nc(-c2cc(Cl)ccc2Cl)n1` [Irsogladine], the “Relative cell viability (%)” value was determined as 176.5%.

Consider `NNC(=O)c1ccncc1` [Isoniazid], for which the “Relative cell viability (%)” value is reported as 140.3%.

In the case of `O[C@@H]1CO[C@H]2[C@@H]1OC[C@@H]2O` [Isosorbide], the “Relative cell viability (%)” value is on record as 83.94%.

On to `CC1=C(/C=C/C(C)=C/C=C/C(C)=C\C(=O)O)C(C)(C)CCC1` [Isotretinoin], for which the “Relative cell viability (%)” value is reported as 60.28%.

Take `COc1cc2c(cc1OC)CC(=O)N(CCCN(C)C[C@H]1Cc3cc(OC)c(OC)cc31)CC2` [Ivabradine HCl]: the “Relative cell viability (%)” value is 110.8%.

Take `O=C(/C=C\n1cnc(-c2cc(C(F)(F)F)cc(C(F)(F)F)c2)n1)NNc1cnccn1` [KPT-330]: the “Relative cell viability (%)” value came to 44.44%.

Regarding `CN1CCC(=C2c3ccccc3CC(=O)c3sccc32)CC1` [Ketotifen Fumarate], the “Relative cell viability (%)” value worked out at 182.5%.

Consider `N[C@@H](Cc1cc(I)c(Oc2cc(I)c(O)c(I)c2)c(I)c1)C(=O)O` [L-Thyroxine], for which the “Relative cell viability (%)” value amounted to 67.96%.

In the case of `C[N+](C)(C)C[C@H](O)CC(=O)[O-]` [L-carnitine], the “Relative cell viability (%)” value stood at 116.1%.

On to `Cc1c(C(=O)Nc2ccc(N3C[C@@H](C)O[C@@H](C)C3)nc2)cccc1-c1ccc(OC(F)(F)F)cc1` [LDE225 (NVP-LDE225,Erismodegib)], for which the “Relative cell viability (%)” value is reported as 111.4%.

`Cc1cc(Nc2ncc(Cl)c(Nc3ccccc3S(=O)(=O)C(C)C)n2)c(OC(C)C)cc1C1CCNCC1` [LDK378]: the “Relative cell viability (%)” value came to 0%.

`CN(C)C(=O)c1cc2cnc(Nc3ccc(N4CCNCC4)cn3)nc2n1C1CCCC1` [LEE011]: the “Relative cell viability (%)” value was 66.24%.

For the molecule `Cc1cccc(-c2nn3c(c2-c2ccnc4ccc(C(N)=O)cc24)CCC3)n1` [LY2157299], the “Relative cell viability (%)” value stood at 106.7%.

In the case of `Cc1cc(Nc2cc(CN3CCOCC3)c3nc(C)c(Cc4ccc(Cl)cc4F)n3n2)n[nH]1` [LY2784544], the “Relative cell viability (%)” value is reported as 102.6%.

Regarding `CCN1CCN(Cc2ccc(Nc3ncc(F)c(-c4cc(F)c5nc(C)n(C(C)C)c5c4)n3)nc2)CC1` [LY2835219], the “Relative cell viability (%)” value turned out to be 5.983%.

As to `CC(CCc1ccccc1)NCC(O)c1ccc(O)c(C(N)=O)c1` (stereo not drawn) [Labetalol HCl], the “Relative cell viability (%)” value worked out at 55.76%.

Regarding `CCOC(=O)C1=C(C)NC(C)=C(C(=O)OCC)C1c1ccccc1/C=C/C(=O)OC(C)(C)C` [Lacidipine], the “Relative cell viability (%)” value worked out at 79.32%.

Consider `O=C(C[S+]([O-])Cc1ccco1)NC/C=C\COc1cc(CN2CCCCC2)ccn1` (stereo not drawn) [Lafutidine], for which the “Relative cell viability (%)” value worked out at 119.6%.

With `Nc1nnc(-c2cccc(Cl)c2Cl)c(N)n1` [Lamotrigine], the “Relative cell viability (%)” value came to 100%.

For `Cc1c(OCC(F)(F)F)ccnc1C[S+]([O-])c1nc2ccccc2[nH]1` (stereo not drawn) [Lansoprazole], the “Relative cell viability (%)” value is given as 63.4%.

Regarding `CS(=O)(=O)CCNCc1ccc(-c2ccc3ncnc(Nc4ccc(OCc5cccc(F)c5)c(Cl)c4)c3c2)o1` [Lapatinib], the “Relative cell viability (%)” value amounted to 94.3%.

Regarding `COC(=O)N[C@H](C(=O)N1CC2(CC2)C[C@H]1c1ncc(-c2ccc3c(c2)C(F)(F)c2cc(-c4ccc5nc([C@@H]6[C@H]7CC[C@H](C7)N6C(=O)[C@@H](NC(=O)OC)C(C)C)[nH]c5c4)ccc2-3)[nH]1)C(C)C` [Ledipasvir (GS5885)], the “Relative cell viability (%)” value was 80.34%.

For the molecule `Cc1oncc1C(=O)Nc1ccc(C(F)(F)F)cc1` [Leflunomide], the “Relative cell viability (%)” value is reported as 55.61%.

For `N#Cc1ccc(C(c2ccc(C#N)cc2)n2cncn2)cc1` [Letrozole], the “Relative cell viability (%)” value was determined as 82.09%.

Consider `CC[C@@H](C(N)=O)N1CCCC1=O` [Levetiracetam], for which the “Relative cell viability (%)” value came out at 78.97%.

Take `C[C@H]1COc2c(N3CCN(C)CC3)c(F)cc3c(=O)c(C(=O)O)cn1c23` [Levofloxacin]: the “Relative cell viability (%)” value was 124%.

As for `C[C@@H]1CC(=O)NN=C1c1ccc(NN=C(C#N)C#N)cc1` [Levosimendan], the “Relative cell viability (%)” value worked out at 103.1%.

On to `CCN1CCC[C@H]1CNC(=O)c1cc(S(N)(=O)=O)ccc1OC` [Levosulpiride], for which the “Relative cell viability (%)” value turned out to be 114.3%.

With `CC1(C)Cc2c(-c3ccccc3)c(-c3ccc(Cl)cc3)c(CC(=O)O)n2C1` [Licofelone], the “Relative cell viability (%)” value was 137.9%.

Consider `CC#CCn1c(N2CCC[C@@H](N)C2)nc2c1c(=O)n(Cc1nc(C)c3ccccc3n1)c(=O)n2C` [Linagliptin], for which the “Relative cell viability (%)” value was 66.5%.

Regarding `N[C@@H](Cc1cc(I)c(Oc2ccc(O)c(I)c2)c(I)c1)C(=O)O` [Liothyronine Sodium], the “Relative cell viability (%)” value was found to be 85.76%.

In the case of `O=C(NC1CCN(CCCCC2(C(=O)NCC(F)(F)F)c3ccccc3-c3ccccc32)CC1)c1ccccc1-c1ccc(C(F)(F)F)cc1` [Lomitapide Mesylate], the “Relative cell viability (%)” value stood at 0%.

Take `NC(=O)N1CCC(CC(=O)N2CCC([C@H]3c4ncc(Br)cc4CCc4cc(Cl)cc(Br)c43)CC2)CC1` [Lonafarnib]: the “Relative cell viability (%)” value came to 95.63%.

With `O=C(O)c1nn(Cc2ccc(Cl)cc2Cl)c2ccccc12` [Lonidamine], the “Relative cell viability (%)” value is 47.57%.

On to `Cc1cccc(C)c1OCC(=O)N[C@@H](Cc1ccccc1)[C@@H](O)C[C@H](Cc1ccccc1)NC(=O)[C@H](C(C)C)N1CCCNC1=O` [Lopinavir], for which the “Relative cell viability (%)” value was found to be 55.61%.

As to `CN1C(C(=O)Nc2ccccn2)=C(O)c2sc(Cl)cc2S1(=O)=O` [Lornoxicam], the “Relative cell viability (%)” value was 228.6%.

For the molecule `CCCCc1nc(Cl)c(CO)n1Cc1ccc(-c2ccccc2-c2nn[nH]n2)cc1` [Losartan Potassium (DuP 753)], the “Relative cell viability (%)” value is listed as 88.32%.

`Cc1c(F)cc(C(=O)NC2CC2)cc1-c1ccc(C(=O)NCC(C)(C)C)cn1` [Losmapimod (GW856553X)]: the “Relative cell viability (%)” value came out at 94.44%.

`CC[C@H](C)C(=O)O[C@H]1C[C@@H](C)C=C2C=C[C@H](C)[C@H](CC[C@@H]3C[C@@H](O)CC(=O)O3)[C@H]21` [Lovastatin]: the “Relative cell viability (%)” value amounted to 169.7%.

As to `CC(C(=O)O)c1ccc(CC2CCCC2=O)cc1` (stereo not drawn) [Loxoprofen], the “Relative cell viability (%)” value worked out at 82.91%.

Take `N#C/C(=C1/SC[C@@H](c2ccc(Cl)cc2Cl)S1)n1ccnc1` [Luliconazole]: the “Relative cell viability (%)” value worked out at 76.67%.

For the molecule `Cn1cnc2c(F)c(Nc3ccc(Br)cc3F)c(C(=O)NOCCO)cc21` [MEK162 (ARRY-162, ARRY-438162)], the “Relative cell viability (%)” value is 36.75%.

In the case of `CC(C)C[C@H](NC(=O)CNC(=O)c1cc(Cl)ccc1Cl)B(O)O` [MLN2238], the “Relative cell viability (%)” value was 125%.

With `Cc1nnc(C(C)C)n1[C@@H]1C[C@H]2CC[C@@H](C1)N2CC[C@H](NC(=O)C1CCC(F)(F)CC1)c1ccccc1` [Maraviroc], the “Relative cell viability (%)” value is reported as 135.7%.

The values above are taken from PMC11672294, “The Antipsychotic Drug Aripiprazole Suppresses Colorectal Cancer by Targeting LAMP2a to Induce RNH1/miR‐99a/mTOR‐Mediated Autophagy and Apoptosis” (Advanced Science, 2024).
